Data set [1] is described as follows: Photostability: xenon arc weathering of chromophore solutions, LCMS analysis. It counts as physicochemical. Particulars: for Ketone (%) / Minus-2HF (%) / Minus-HF (%) / Sulfone (%) / Chromophore Remaining (%): xenon arc, 82° C. bp; for Ketone (%) / Minus-2HF (%) / Minus-HF (%) / Sulfone (%): linearly interpolated to 0.5 MJ/m2 @ 340 nm; for Chromophore Remaining (%): linearly interpolated to 0.5 MJ/m2 @ 340 nm of exposure energy; for Ratio of chromophore remaining relative to S340: interpolated to 0.5 MJ/m^2 of energy exposure at 340 nm; for Photostability (in words): weathering experiments. An excerpt:
Photostability (resistance to light-induced degradation) may be measured by the amount of time required for the compound, or a material comprising the compound, to degrade to a certain point under light exposure. The light exposure may be constant, or cyclic. The light transmittance or absorbance of the compound, or material comprising the compound, may be determined at both a light state and dark state prior to testing, to determine a contrast ratio. During testing, the contrast ratio may be monitored (periodically or continually), the compound or material may be determined to have failed when the contrast ratio falls outside, or below, a selected range, or when the contrast ratio decreases to a percentage of the original contrast ratio. Photostability may also be expressed with reference to a light source or with reference to a type of light.
Chromophore solutions in Rhodiasolv IRIS were prepared at 1 to 10 wt % loading. Solutions were prepared in a glovebox by charging the chromophore and Rhodiasolv IRIS to a trace-clean vial, and the solution was stirred on a hotplate at 90° C. for 2-24 hours. After cooling, the chromophore solution was injected into glass weathering cells and the fill and vent ports were sealed with a thin disc of Kalrez (FFKM Perfluorinated Elastomer) and secured with a clamp and set-screw. The weathering cells were filled and sealed inside the glove box.
Measurement of Photostability
A. Fabrication of cuvettes. Two holes of 0.8 mm diameter were drilled at opposite ends in a 75×50 mm piece of float glass using a diamond drill bit in a rotary tool. The drilled glass and a matching piece of undrilled glass were then cleaned using hot soapy water, rinsed with deionized water and acetone and then dried with compressed air. A 5 mm wide frame was cut from a sheet of 50 μm thickness EVAL EF-F using a laser engraver. The EVAL frame was placed around the perimeter of one sheet of glass and sandwiched by the second sheet of glass. The glass-EVAL-glass sandwich was secured with tape and heated under vacuum (10 mmHg) for 30 minutes at 170° C. in a vacuum bag. After cooling, a third piece of float glass was PVB laminated to the non-drilled side of the sealed glass cells using Trosifol UV Extra Protect B150 PVB (400 nm UV cut-off).
B. Xenon arc weathering protocol. Devices were exposed to simulated weathering conditions inside a Xe-3-HS xenon arc chamber, manufactured by Q-labs Inc. The samples were weathered according to the following table. The devices were exposed to these conditions continuously, with no dark or spray cycles included.
C. Analysis of weathered chromophore solutions by LCMS. The set-screws, metal clamps and Kalrez plugs were removed from the cuvette to expose the fill port. A 5 mL plastic syringe (NORM-JECT®) equipped with a tip (Precision Tips, 0.010″ RED) was inserted into one fill port and the chromophore solution was withdrawn from the cuvette. The chromophore solution was then injected into a 2 mL amber vial (part number 5182-0716, Agilent Technology) prefilled with 1.5 mL LC-MS grade acetonitrile (HiPerSolbe CHROMANORM Acetonitrile, VWR BDH Chemicals). An aliquot of the acetonitrile solution (2 μL) was injected into the LC-MS system (Agilent Infinity 1290 LC-MS system with diode array detector) through an autosampler mechanism. Species in the injected sample were separated through a reverse phase column (Zorbax SB-C18, 2.1×50 mm, 1.8 μm, operated at 40° C.), using a mixture of acetonitrile (mixed with 1% formic acid v/v ratio), methanol (HiPerSolbe CHROMANORM Methanol, VWR BDH Chemicals) and water (HiPerSolbe CHROMANORM Water, VWR BDH Chemicals) as mobile phase.

Data set [2] is described as follows: Oxidation potential of ring-closed and ring-open isomers. The settings on record: no unit printed in table (V relative to Ag/AgCl). In kind it is physicochemical. An excerpt:
In various embodiments, at a PSS, some of the chromophore will be in the ring-closed isomer, with a small, but non-zero portion of ring-open isomer. The oxidation potential of a ring-open isomer may be more anodic than the oxidation potential of a ring-closed isomer. Exposure to a potential that is too far beyond what is necessary to oxidize the ring-closed isomer may result in oxidation of the ring-open isomer, which may be irreversible and result in electrochemically-induced degradation of the chromophore.
Thus, in various embodiments, an anodic chromophore may have an oxidation potential of from about 0.4 V to 1.2 V for the ring-closed isomer and about 1.0 V to 2.5 V for the ring-open isomer relative to an Ag/AgCl reference electrode. In various embodiments, the oxidation potential for the ring-open isomer is about 250 mV more anodic than the oxidation potential for the ring-closed isomer. For example, the oxidation potential may be about 260 mV, about 280 mV, about 300 mV, about 320 mV, about 340 mV, about 360 mV, about 380 mV, about 400 mV, about 420 mV, about 440 mV, or about 460 mV more anodic than the oxidation potential for the ring-closed isomer.

Turning to `CC(=O)Oc1cc2oc(-c3ccc(C(C)(C)C)cc3)c(C3=C(c4cc(-c5ccc(C(C)(C)C)s5)sc4-c4ccc(C(C)(C)C)s4)C(F)(F)C(F)(F)C3(F)F)c2cc1OC(C)=O` [Chromophore S367, 2-(4-(tert-butyl)phenyl)-3-(2-(5,5″-di-tert-butyl-[2,2′:5′,2″-terthiophen]-3′-yl)-3,3,4,4,5,5-hexafluorocyclopent-1-en-1-yl)benzofuran-5,6-diyl diacetate], in data set [1] (10 wt % in Rhodiasolv IRIS), the “Ketone (%)” value came out at 1.1%, the “Minus-2HF (%)” value was found to be 0.0%, the “Minus-HF (%)” value amounted to 56.0% and the “Sulfone (%)” value stood at 0.0%. Moreover, the “Chromophore Remaining (%)” value in data set [1] (10 wt % in Rhodiasolv IRIS) amounted to 40.8%. Also, the “Ratio of chromophore remaining relative to S340” value in data set [1] (10 wt %) was 0.45. Moreover, the “Photostability (in words)” value in data set [1] is listed as “more rapid degradation compared to S340”. In data set [2], the “RC [O] (oxidation potential of ring-closed isomer)” value (from here on “RC [O]”) was found to be 1.12 and the “RO [O] (oxidation potential of ring-open isomer)” value (“RO [O]” below) worked out at 1.38.
In the case of `CCOC(=O)CCCOc1cc2oc(-c3ccc(C(C)(C)C)cc3)c(C3=C(c4cc(-c5ccc(C(C)(C)C)s5)sc4-c4ccc(C(C)(C)C)s4)C(F)(F)C(F)(F)C3(F)F)c2cc1OCCCC(=O)OCC` [Chromophore S374, diethyl 4,4′-((2-(4-(tert-butyl)phenyl)-3-(2-(5,5″-di-tert-butyl-[2,2′:5′,2″-terthiophen]-3′-yl)-3,3,4,4,5,5-hexafluorocyclopent-1-en-1-yl)benzofuran-5,6-diyl)bis(oxy))dibutanoate], in data set [1] (10 wt % in Rhodiasolv IRIS), the “Ketone (%)” value was 0.0%, the “Minus-2HF (%)” value worked out at 0.0%, the “Minus-HF (%)” value is on record as 26.5% and the “Sulfone (%)” value worked out at 0.0%. Moreover, the “Chromophore Remaining (%)” value in data set [1] (10 wt % in Rhodiasolv IRIS) is 72.4%. Moreover, in data set [1] (10 wt %), the “Ratio of chromophore remaining relative to S340” value worked out at 0.79. The “Photostability (in words)” value in data set [1] is reported as “decreased stability”. In data set [2], the “RC [O]” value is 0.93 and the “RO [O]” value is given as 1.35.
With `COc1cc2oc(-c3ccc(C(C)(C)C)cc3)c(C3=C(c4cc(-c5cc(C(C)(C)C)cs5)sc4-c4cc(C(C)(C)C)cs4)C(F)(F)C(F)(F)C3(F)F)c2cc1OC` [Chromophore S377, 2-(4-(tert-butyl)phenyl)-3-(2-(4,4″-di-tert-butyl-[2,2′:5′,2″-terthiophen]-3′-yl)-3,3,4,4,5,5-hexafluorocyclopent-1-en-1-yl)-5,6-dimethoxybenzofuran], in data set [1] (5 wt % in Rhodiasolv IRIS), the “Ketone (%)” value is recorded as 0.0%, the “Minus-2HF (%)” value amounted to 0.0%, the “Minus-HF (%)” value is listed as 0.0% and the “Sulfone (%)” value was found to be 0.0%. In addition, the “Chromophore Remaining (%)” value in data set [1] (5 wt % in Rhodiasolv IRIS) was 100.0%. Moreover, the “Ratio of chromophore remaining relative to S340” value in data set [1] (5 wt %) worked out at 1.10. For the same molecule, the “Photostability (in words)” value in data set [1] is “high photostability”. Moreover, in data set [2], the “RC [O]” value is given as 0.97 and the “RO [O]” value is on record as 1.42.
As for `COc1cc2oc(-c3ccc(C(C)(C)C)cc3)c(C3=C(c4cc(-c5ccc(C(C)(C)C)s5)sc4-c4sc(C(C)(C)C)cc4C)C(F)(F)C(F)(F)C3(F)F)c2cc1OC` [Chromophore S378, 2-(4-(tert-butyl)phenyl)-3-(2-(5,5″-di-tert-butyl-3-methyl-[2,2′:5′,2″-terthiophen]-3′-yl)-3,3,4,4,5,5-hexafluorocyclopent-1-en-1-yl)-5,6-dimethoxybenzofuran], in data set [1], the “Formation of the Minus-HF degradation product (in words)” value was “does not occur”. For the same molecule, in data set [1] (3 wt % in Rhodiasolv IRIS), the “Ketone (%)” value was determined as 0.0%, the “Minus-2HF (%)” value was 0.0%, the “Minus-HF (%)” value stood at 0.0% and the “Sulfone (%)” value is 7.5%. In data set [1] (3 wt % in Rhodiasolv IRIS), the “Chromophore Remaining (%)” value came out at 92.5%. In data set [1] (3 wt %), the “Ratio of chromophore remaining relative to S340” value is recorded as 1.02. Also, in data set [2], the “RC [O]” value is 0.9 and the “RO [O]” value amounted to 1.36.
Consider `CCOC(=O)CCCOc1cc2oc(-c3ccc(C(C)(C)C)cc3)c(C3=C(c4cc(-c5ccc(C(C)(C)C)s5)sc4-c4sc(C(C)(C)C)cc4C)C(F)(F)C(F)(F)C3(F)F)c2cc1OCCCC(=O)OCC` [Chromophore S383, diethyl 4,4′-((2-(4-(tert-butyl)phenyl)-3-(2-(5,5″-di-tert-butyl-3-methyl-[2,2′:5′,2″-terthiophen]-3′-yl)-3,3,4,4,5,5-hexafluorocyclopent-1-en-1-yl)benzofuran-5,6-diyl)bis(oxy))dibutanoate], for which the “Formation of the Minus-HF degradation product (in words)” value in data set [1] was “does not occur”. Also, in data set [1] (10 wt % in Rhodiasolv IRIS), the “Ketone (%)” value came out at 0.0%, the “Minus-2HF (%)” value was determined as 0.0%, the “Minus-HF (%)” value was determined as 0.0% and the “Sulfone (%)” value was determined as 0.0%. Further, the “Chromophore Remaining (%)” value in data set [1] (10 wt % in Rhodiasolv IRIS) was determined as 100.0%. In addition, the “Ratio of chromophore remaining relative to S340” value in data set [1] (10 wt %) is given as 1.10. In data set [2], the “RC [O]” value is 0.91 and the “RO [O]” value turned out to be 1.36.
In the case of `CCOC(=O)CCCOc1cc2oc(-c3ccc(C(C)(C)C)cc3)c(C3=C(c4cc(-c5sc(C(C)(C)C)cc5C)sc4-c4sc(C(C)(C)C)cc4C)C(F)(F)C(F)(F)C3(F)F)c2cc1OCCCC(=O)OCC` [Chromophore S384, diethyl 4,4′-((2-(4-(tert-butyl)phenyl)-3-(2-(5,5″-di-tert-butyl-3,3″-dimethyl-[2,2′:5′,2″-terthiophen]-3′-yl)-3,3,4,4,5,5-hexafluorocyclopent-1-en-1-yl)benzofuran-5,6-diyl)bis(oxy))dibutanoate], in data set [1], the “Formation of the Minus-HF degradation product (in words)” value is “does not occur”. In addition, in data set [1] (10 wt % in Rhodiasolv IRIS), the “Ketone (%)” value is 0.0%, the “Minus-2HF (%)” value was 0.0%, the “Minus-HF (%)” value was 0.0% and the “Sulfone (%)” value stood at 1.3%. Also, the “Chromophore Remaining (%)” value in data set [1] (10 wt % in Rhodiasolv IRIS) is given as 97.2%. Besides, the “Ratio of chromophore remaining relative to S340” value in data set [1] (10 wt %) is reported as 1.07. In addition, in data set [2], the “RC [O]” value was 0.87 and the “RO [O]” value stood at 1.31.

Values taken from US20220220100A1 (SOLUTIA CANADA INC., priority 2019, published 2022).
